Results: ChEMBL document CHEMBL1667861, “Kinetic and docking studies of phenol-based inhibitors of carbonic anhydrase isoforms I, II, IX and XII evidence a new binding mode within the enzyme active site” (Bioorg Med Chem, 2011)

Experiments:
[1] = target: Carbonic anhydrase 9 (Homo sapiens, UniProt Q16790); test: Inhibition of human carbonic anhydrase 9 preincubated for 15 mins by CO2 hydration stopped-flow assay
[2] = target: Carbonic anhydrase 1 (Homo sapiens, UniProt P00915); test: Inhibition of human carbonic anhydrase 1 preincubated for 15 mins by CO2 hydration stopped-flow assay
Chain of Carbonic anhydrase 1 (P00915 whole entry): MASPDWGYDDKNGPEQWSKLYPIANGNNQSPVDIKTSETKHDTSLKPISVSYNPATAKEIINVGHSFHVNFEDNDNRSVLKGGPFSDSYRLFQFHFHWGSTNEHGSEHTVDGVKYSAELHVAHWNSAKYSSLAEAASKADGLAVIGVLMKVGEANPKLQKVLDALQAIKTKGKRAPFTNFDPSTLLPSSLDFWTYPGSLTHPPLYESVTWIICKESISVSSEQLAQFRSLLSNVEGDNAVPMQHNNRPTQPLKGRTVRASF

[3] = target: Carbonic anhydrase 2 (Homo sapiens, UniProt P00918); test: Inhibition of human carbonic anhydrase 2 preincubated for 15 mins by CO2 hydration stopped-flow assay
[4] = target: Carbonic anhydrase 12 (Homo sapiens, UniProt O43570)
Chain of Carbonic anhydrase 12 (O43570 whole entry): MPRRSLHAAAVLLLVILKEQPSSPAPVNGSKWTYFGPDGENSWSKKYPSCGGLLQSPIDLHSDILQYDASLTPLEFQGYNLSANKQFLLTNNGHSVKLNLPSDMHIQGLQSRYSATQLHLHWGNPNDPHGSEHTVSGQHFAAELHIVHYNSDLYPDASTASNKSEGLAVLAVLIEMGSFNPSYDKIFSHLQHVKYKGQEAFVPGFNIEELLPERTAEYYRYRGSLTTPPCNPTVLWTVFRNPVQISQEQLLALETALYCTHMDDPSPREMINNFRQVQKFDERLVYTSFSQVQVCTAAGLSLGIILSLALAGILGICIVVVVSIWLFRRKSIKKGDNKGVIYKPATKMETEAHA

| Ki [1] [µM] | Ki [2] [µM] | Ki [3] [µM] | Ki [4] [µM] | Compound |
| --- | --- | --- | --- | --- |
| 4.53 | 2.37 | 0.6 | 3.53 | O=C(O)c1cccc(O)c1 [3-HYDROXYBENZOIC ACID] |
| 4.45 | 1.08 | – | 4.09 | O=C(O)c1ccc(O)c(O)c1 [PROTOCATECHUIC ACID] |

The remaining lines, values behind:

| Compound | Ki [1] [µM] | Ki [2] [µM] | Ki [3] [µM] | Ki [4] [µM] |
| --- | --- | --- | --- | --- |
| COc1ccc(OC)c(OC)c1 [1,2,4-TRIMETHOXYBENZENE] | 4.06 | – | – | – |
| COc1ccc(C(=O)O)cc1OC [VERATRIC ACID] | 8.25 | 6.83 | 6.18 | 6.7 |
| O=C(O)c1cc(O)cc(O)c1 [3,5-DIHYDROXYBENZOIC ACID] | 4.41 | 0.55 | – | 3.67 |
| COc1ccc(OC)cc1 [1,4-DIMETHOXYBENZENE] | – | – | 3.35 | – |
